Assay results reported in ChEMBL document CHEMBL1133887, “Anti-influenza virus activities of 2-alkoxyimino-n-(2-isoxazolin-3-ylmethyl)acetamides” (Bioorg Med Chem Lett, 2001).
Converted amounts (≈) assume the structure as drawn.

Tests used:
[1] = Evaluated for cytotoxic activity in MDBK cells; assay type: functional; conditions: Bos taurus
[2] = Antiviral activity against A/WSN/33 strain of influenza virus (H1N1 subtype) in MDBK cells using cell protection assay; expressed as 10-100 ppm; assay type: functional, cell-based; conditions: Bos taurus
[3] = cells; assay type: functional, cell-based; conditions: Bos taurus, MDBK
[4] = Antiviral activity against A/WSN/33 strain of influenza virus (H1N1 subtype) in MDBK cells using cell protection assay; expressed as 1-10 ppm; assay type: functional, cell-based; conditions: Bos taurus
[5] = The compound was evaluated for cytotoxic activity in MDBK cells; expressed as >100 ppm; assay type: functional; conditions: Bos taurus
[6] = Antiviral activity against A/WSN/33 strain of influenza virus (H1N1 subtype) in MDBK cells using cell protection assay; expressed as >10-100 ppm; assay type: functional, cell-based; conditions: Bos taurus
[7] = Antiviral activity against A/WSN/33 strain of influenza virus (H1N1 subtype) in MDBK cells using cell protection assay; expressed as 100 ppm; assay type: functional, cell-based; conditions: Bos taurus
[8] = Antiviral activity against A/WSN/33 strain of influenza virus (H1N1 subtype) in MDBK cells using cell protection assay; assay type: functional, cell-based; conditions: Bos taurus

SMILES | CC50 [1] [µg/mL] | EC50 [2] [µg/mL] | also measured
CO/N=C(/C#N)C(=O)NCC1=NOC(C(C)(C)C)C1 (stereo not given) | > 100 | 100 (≈ 376 µM) | –
CO/N=C(/C#N)C(=O)NCC1=NOC(C)(C)C1 | > 100 | – | EC50 [3]: > 100 µg/mL
CO/N=C(\C#N)C(=O)NC1=NOC(C(C)(C)C)C1 (stereo not given) | > 100 | – | EC50 [3]: > 100 µg/mL
CC(C)O/N=C(\C#N)C(=O)NCC1=NOC(C(C)(C)C)C1 (stereo not given) | > 100 | – | EC50 [4]: 10 µg/mL (≈ 34 µM)
CO/N=C(\C#N)C(=O)NCC1=NOC(C(C)(C)C)C1 (stereo not given) | > 100 | – | EC50 [4]: 10 µg/mL (≈ 37.6 µM)
CO/N=C(\C#N)C(=O)NCC1=NOC(C)C1 (stereo not given) | – | 100 (≈ 446 µM) | CC50 [5]: > 100 µg/mL
C=CCO/N=C(\C#N)C(=O)NCC1=NOC(c2ccccc2)(c2ccccc2)C1 | 100 (≈ 257 µM) | – | EC50 [6]: > 100 µg/mL
C=CCO/N=C(\C#N)C(=O)NCc1cc(C(C)(C)C)on1 | 100 (≈ 344 µM) | 100 (≈ 344 µM) | –
CO/N=C(\C#N)C(=O)NCc1cccnc1 | > 100 | – | EC50 [3]: > 100 µg/mL
C=CCO/N=C(/C(=O)NCC1=NOC(C(C)(C)C)C1)c1ccccc1 (stereo not given) | > 100 | – | EC50 [7]: 100 µg/mL (≈ 291 µM)
CO/N=C(\C#N)C(=O)NCC1=NOC(C)(C)C1 | > 100 | 100 (≈ 420 µM) | –
CO/N=C(\C#N)C(=O)NCc1cccs1 | > 100 | – | EC50 [3]: > 100 µg/mL
CO/N=C(\C#N)C(=O)NC(=O)OC(C)(C)C | > 100 | – | EC50 [3]: > 100 µg/mL
CC(C)(C)C1CC(CNC(=O)/C(C#N)=N/OCc2cccnc2)=NO1 (stereo not given) | > 100 | – | EC50 [3]: > 100 µg/mL
CCO/N=C(\C#N)C(=O)NCC1=NOC(C(C)(C)C)C1 (stereo not given) | > 100 | – | EC50 [4]: 10 µg/mL (≈ 35.7 µM)
CC(C)(C)C1CC(CNC(=O)/C(C#N)=N/OCC#N)=NO1 (stereo not given) | > 100 | 100 (≈ 343 µM) | –
C=CCO/N=C/C(=O)NCC1=NOC(C(C)(C)C)C1 (stereo not given) | > 100 | – | EC50 [7]: 100 µg/mL (≈ 374 µM)
C=CCO/N=C(\C#N)C(=O)NCC1=NOC(c2ccccc2)C1 (stereo not given) | 100 (≈ 320 µM) | 100 (≈ 320 µM) | –
C=CCO/N=C(\C)C(=O)NCC1=NOC(C(C)(C)C)C1 (stereo not given) | > 100 | – | EC50 [8]: 6 µg/mL (≈ 21.3 µM)
CC(C)(C)C1CC(CNC(=O)/C(C#N)=N/OCc2ccccc2)=NO1 (stereo not given) | 100 (≈ 292 µM) | 100 (≈ 292 µM) | –
CO/N=C(\C#N)C(=O)NCC1CC(C(C)(C)C)=NO1 (stereo not given) | > 100 | 100 (≈ 376 µM) | –
C=CCO/N=C(\CC)C(=O)NCC1=NOC(C(C)(C)C)C1 (stereo not given) | > 100 | – | EC50 [7]: 100 µg/mL (≈ 339 µM)
C=CCO/N=C(\C#N)C(=O)NCC1=NOC(C(C)(C)C)C1 (stereo not given) | > 100 | – | EC50 [8]: 3 µg/mL (≈ 10.3 µM)
NC12CC3CC(CC(C3)C1)C2 [AMANTADINE] | > 100 | 100 (≈ 661 µM) | –
CCNC(=O)NC(=O)/C(C#N)=N/OC [CYMOXANIL] | > 100 | – | EC50 [3]: > 100 µg/mL
